Test results from ChEMBL document CHEMBL3784978, “Stabilization of G-quadruplex DNA and inhibition of Bcl-2 expression by a pyridostatin analog” (Bioorg Med Chem Lett, 2016).
Calls of active or inactive are those of the source. The calls are words filed in the database; no cut-off is given here.

How the values were obtained:
[1] = Binding affinity to Bcl2 G-quadraplex DNA (unknown origin) assessed as binding constant at 8 uM by Stern-Volmer plot analysis in the presence of KCl and NaCl
[2] = Binding affinity to duplex ds20 DNA (unknown origin) assessed as binding constant at 8 uM by Stern-Volmer plot analysis in the presence of KCl and NaCl
[3] = Binding affinity to duplex ds26 DNA (unknown origin) assessed as binding constant at 8 uM by Stern-Volmer plot analysis in the presence of KCl and NaCl
[4] = Ratio of binding affinity to Bcl2 G-quadruplex DNA (unknown origin) to binding affinity to duplex ds26 DNA (unknown origin)
[5] = Ratio of binding affinity to Bcl2 G-quadruplex DNA (unknown origin) to binding affinity to duplex ds20 DNA (unknown origin)
[6] = Binding affinity to Bcl2 G-quadraplex DNA (unknown origin) assessed as melting temprature at 2 uM by circular dichroism spectroscopic analysis in the presence of KCl and NaCl
[7] = Binding affinity to Bcl2 G-quadraplex DNA (unknown origin) assessed as melting temprature at 5 uM by circular dichroism spectroscopic analysis in the presence of KCl and NaCl
Homo sapiens = species on record: Homo sapiens; assay: Binding affinity to duplex ds26 DNA (unknown origin) assessed as melting temprature at 12 uM by circular dichroism spectroscopic analysis in the presence of KCl and NaCl
HEp-2 [8] = assay: Binding affinity to Bcl2 G-quadraplex DNA in human Hep2 cells assessed as reduction in Bcl-2 expression co-transfected in pRL-TK plasmid vector after 48 hrs by dual-luciferase reporter assay; type: cell-based
HEp-2 [9] = assay: Binding affinity to Bcl2 G-quadraplex DNA in human Hep2 cells assessed as reduction in Bcl-2 gene levels by real-time PCR method; type: cell-based
HEp-2 [10] = assay: Antiproliferative activity against human Hep2 cells measured up to 10 uM after 48 hrs by MTT assay; type: functional, cell-based

| Ka [1] [×10⁵ L/mol] | Ka [2] [×10⁵ L/mol] | Ka [3] [×10⁵ L/mol] | Ratio [4] | Ratio [5] | Tm [6] [°C] | Tm [7] [°C] | Tm (Homo sapiens) [°C] | SMILES | Activity (HEp-2 [8]) | Activity (HEp-2 [9]) | Activity (HEp-2 [10]) |
| --- | --- | --- | --- | --- | --- | --- | --- | --- | --- | --- | --- |
| 6.97 | 1.36 | 1.52 | 4 | 4 |  |  |  | NCCOc1cc(C(=O)Nc2cc(OCCN)c3ccccc3n2)nc(C(=O)Nc2cc(OCCN)c3ccccc3n2)c1 |  |  |  |
| 4.29 | 0.28 | 0.66 | 6.5 | 6.5 | 56 | 71 | 68 | CN(C)CCOc1cc(NC(=O)c2cc(OCCN)cc(C(=O)Nc3cc(OCCN(C)C)c4ccccc4n3)n2)nc2ccccc12 | Dose-dependent effect | Active | Active |
